Reference: patent publication US8629100B2, “Method of inhibiting clostridium difficile by administration of oritavancin” (The Medicines Company, priority 2007, dated 2014)
Values after ≈ are worked out from the molar mass of the structure shown.

What was measured:
[1] = test system: C. difficile spores; assay: Agar-based culture: spore recovery after antimicrobial exposure; type: cell-based; settings: 350 mg/L, 1 min and 30 min, filtered onto CAF, 48 h
Protocol: Antimicrobial-spore solutions were mixed, diluted (to sub-MIC) in sterile de-ionised water, filtered onto cellulose acetate filters (CAF, 0.45 μm) and washed. CAF were transferred onto Brazier's agar (pH 7)+5 mg/L lysozyme, and following anaerobic incubation (37° C., 48 h), % C. difficile spores (vs. control) were determined.

[2] = test system: C. difficile PCR ribotype 001 (vegetative, spores); assay: Growth on antibiotic-exposed cellulose acetate filters (Example 3C); type: cell-based; settings: for Growth of vegetative C. difficile on filters through which antibiotic had been filtered: PCR ribotype 001 overnight culture, anaerobic incubation; for Growth of C. difficile spores on filters through which antibiotic had been filtered: PCR ribotype 001 spores
Protocol: One mL solutions (containing no C. difficile spores) were processed as in Experiment 2B and filters placed onto Braziers CCEY agar. Onto the filters were inoculated 2×20 μL of:
a) Vegetative C. difficile (an overnight culture of PCR ribotype 001)
b) C. difficile spores (PCR ribotype 001), or
Growth/no growth was recorded following anaerobic incubation.

[3] = test system: S. aureus NCTC 6571; assay: Agar incorporation MIC against S. aureus NCTC 6571; type: cell-based; settings: Staphylococcus aureus, NCTC6571; agar incorporation methodology
[4] = test system: Oxford S. aureus; assay: Antimicrobial-spore binding: washed exposed spores on S. aureus lawn (Example 3D); type: cell-based, Staphylococcus aureus; settings: spores suspended in 350 mg/L; after 0, 1, 2, 4, 5, 6, 9 and 10 washes
Protocol: A further potential explanation for the failure to recover oritavancin-treated C. difficile spores from the above experiments (in addition to presence of the drug in cellulose acetate filters) is that oritavancin may be able to bind C. difficile spores and directly damage spores, or inhibit spore germination and/or outgrowth. A simple experiment was conducted in order to assess antimicrobial-spore binding:
Two solutions were prepared:
1) C. difficile spores (PCR ribotype 001, control), and
2) C. difficile spores suspended in 350 mg/L oritavancin (diluent: Tween-80-H2O).
Fresh blood agar was inoculated with a lawn of the Oxford S. aureus. In one replicate, C. difficile spores were centrifuged (16000 g, 5 min), the supernatants removed and pellets re-suspended in 500 μL of Tween-80-H2O. 10 μL of the re-suspended spore suspension was inoculated onto the surface S. aureus lawn.
In another replicate, C. difficile spore suspensions were washed a total of 10 times using this procedure and inoculated onto the surface of the S. aureus lawn.
In both replicates agar was incubated aerobically at 37° C. overnight, and then the presence or absence of zones of inhibition were recorded.

[5] = test system: C. difficile PCR ribotype 027; assay: In vitro triple-stage chemostat human gut model of clindamycin-induced CDI; settings: for Decline of cytotoxin titres during instillation: 7 days; for Recrudescence of C. difficile spore germination, proliferation and cytotoxin production: after concentrations declined below limits of detection
Text: A single isolate of C. difficile PCR ribotype 027 was investigated. This isolate was a clinical strain recovered during an epidemic of CDI at the Maine Medical Centre (Portland, USA) in 2005. It was supplied courtesy of Dr. Rob Owens and ribotyped at the Anaerobe Reference Laboratory (Cardiff, Wales, UK) by Dr Jon Brazier.
(§1) The gut model was designed to allow the study of the intestinal microflora in the low pH, carbohydrate-excess conditions of the proximal colon and the carbohydrate-depleted, non-acidic conditions of the distal colon (Macfarlane et al., Microb Ecol 1998; 35: 180-7). Microbiological and physicochemical measurements within the gut model vessels were validated against the intestinal contents of sudden death victims (Macfarlane et al., Microb Ecol 1998; 35: 180-7). Each gut model consists of three fermentation vessels connected in a weir cascade system top-fed with growth medium at a controlled rate (D=0.015 h^−1). Vessels were sparged with oxygen-free nitrogen to ensure anaerobiosis, heated via a water-jacketed system (37° C.) and maintained at specific pH using fermenter controller units (Biosolo 3, Brighton Systems, UK) delivering 0.5 M HCl/NaOH. Vessel 1 (280 mL) was operated at pH 5.5 and high substrate availability, thus reflecting the conditions within the proximal colon, while vessels 2 and 3 (300 mL) were operated at pH 6.2 and 6.8, respectively, with low substrate availability, thus reflecting the conditions within the distal colon. The gut model was primed with faecal slurry ˜10% (w/v) and allowed to equilibrate with respect to bacterial populations for 14 days.
(§2) Faecal samples were collected from five healthy elderly (>65 years) volunteers and immediately transported to the laboratory under anaerobic conditions (GasPak, Oxoid, Basingstoke, UK). […] C. difficile-negative faeces were pooled and a coarse-filtered slurry (˜10% w/v) in sterile pre-reduced phosphate-buffered saline was prepared. Vessels of the gut models were filled to approximately two-thirds volume, and the growth medium pumps were started.
(§3) Major culturable components of the indigenous gut microflora and C. difficile were enumerated by viable counting (log10 cfu/mL) on selective and non-selective agars as reported previously (Freeman et al., J Antimicrob Chemother 2005; 56: 717-25). Bacterial groups enumerated were: total facultative anaerobes, facultatively anaerobic lactose fermenters, total anaerobes, bifidobacteria, Bacteroides fragilis group, total clostridia, lactobacilli, enterococci, total C. difficile and C. difficile spores. C. difficile cytotoxin production was quantified using a Vero cell cytotoxicity assay as described previously (Freeman et al., J Antimicrob Chemother 2003; 52: 96-102). Cytotoxin titres were expressed in log10 relative units (RU). Only C. difficile total bacterial counts, spore counts and cytotoxin titres were enumerated in vessel 1 of the gut model.
(§4) The use of the gut model to evaluate therapeutic interventions for CDI has been described previously (Freeman et al., J Antimicrob Chemother 2007; 60: 83-91; Freeman et al., J Antimicrob Chemother 2005; 56: 717-25). Briefly, following inoculation of each gut model with the faecal slurry, no further interventions were made for 13 days (period A). During period A, bacterial populations were enumerated every 2 days. Next (day 14), vessel 1 of each gut model was inoculated with a single inoculum of ˜10^7 cfu C. difficile PCR ribotype 027 spores (Freeman et al., J Antimicrob Chemother 2003; 52: 96-102), with no further interventions for 7 days (period B). From this point onwards, bacterial populations were enumerated daily.

[6] = test system: indigenous gut microflora; assay: In vitro human gut model: indigenous gut microflora counts; type: cell-based; settings: for Decline in Bacteroides populations / Decline in enterococcal populations: following instillation, period E, vessel 3
Text: as §1, §2, §3, §4

[7] = day 2 of instillation (64 mg/L two times daily), vessel 3

CN[C@H](CC(C)C)C(=O)N[C@H]1C(=O)N[C@@H](CC(N)=O)C(=O)N[C@H]2C(=O)N[C@H]3C(=O)N[C@H](C(=O)N[C@H](C(=O)O)c4cc(O)cc(O)c4-c4cc3ccc4O)[C@H](O[C@H]3C[C@](C)(N)[C@@H](O)[C@H](C)O3)c3ccc(c(Cl)c3)Oc3cc2cc(c3O[C@@H]2O[C@H](CO)[C@@H](O)[C@H](O)[C@H]2O[C@H]2C[C@](C)(NCc3ccc(-c4ccc(Cl)cc4)cc3)[C@@H](O)[C@H](C)O2)Oc2ccc(cc2Cl)[C@H]1O [oritavancin, N-(4-(4-chlorophenyl)benzyl)A82846B]
Recovery of C. difficile spores following exposure [1]: not recovered
Growth of vegetative C. difficile on filters through which antibiotic had been filtered [2]: Greatly reduced numbers
Growth of C. difficile spores on filters through which antibiotic had been filtered [2]: unrecoverable
Vegetative C. difficile recovered on exposed filters ([2]; on one plate): 1 cfu
MIC [3]: ~4 µg/mL (≈ 2.23 µM)
Effect of antibiotic-exposed C. difficile spores on growth of Oxford S. aureus [4]: inhibitory to growth
Longer time for cytotoxin titres to decline to undetectable levels than in vancomycin experiment [5]: 5 days
C. difficile total counts and spore counts ([5]; 1 day later (day 3 of instillation) and rest of period E, LOD ~1.22 log10 cfu/mL): below the limits of detection
Time to cytotoxin titres below the limits of detection ([5]; after cessation of instillation, period F): ≤ 10 days
Decline of C. difficile spore counts [5, 7]: ~2 log10 cfu/mL
Decline of C. difficile total counts [5, 7]: ~2 log10 cfu/mL
Decline of cytotoxin titres during instillation ([5]; period E): 3 RU
Recrudescence of C. difficile spore germination, proliferation and cytotoxin production ([5]; period F): No recrudescence
C. difficile isolation after cessation of instillation ([5]; period F, remainder of the experiment): isolated sporadically at the limits of detection
Decline in Bacteroides populations [6]: ~1 log10 cfu/mL
Decline in enterococcal populations [6]: ~2 log10 cfu/mL
Bifidobacteria after cessation of instillation ([6]; period F): remained below the limits of detection

CN[C@H](CC(C)C)C(=O)N[C@H]1C(=O)N[C@@H](CC(N)=O)C(=O)N[C@H]2C(=O)N[C@H]3C(=O)N[C@H](C(=O)N[C@H](C(=O)O)c4cc(O)cc(O)c4-c4cc3ccc4O)[C@H](O)c3ccc(c(Cl)c3)Oc3cc2cc(c3O[C@@H]2O[C@H](CO)[C@@H](O)[C@H](O)[C@H]2O[C@H]2C[C@](C)(N)[C@H](O)[C@H](C)O2)Oc2ccc(cc2Cl)[C@H]1O [vancomycin]
Growth of vegetative C. difficile on filters through which antibiotic had been filtered [2]: grew
Growth of C. difficile spores on filters through which antibiotic had been filtered [2]: good growth
Time C. difficile remained as spores before recurrent germination, proliferation and cytotoxin production ([5]; after cessation of instillation, vessel 2): 12 days
Time C. difficile remained as spores before recurrent germination, proliferation and cytotoxin production ([5]; after cessation of instillation, vessel 3): 13 days
Effect on C. difficile spore counts ([5]; during instillation, period E): unaffected
Decline of cytotoxin titres during instillation ([5]; period E): 3 RU
C. difficile total counts by the end of the experiment ([5]; period F): ~6 login cfu/mL
Cytotoxin titres by the end of the experiment ([5]; period F): 5 RU
Recrudescence of C. difficile spore germination, proliferation and cytotoxin production ([5]; period F): Recrudescence
Decline in Bacteroides populations [6]: ~6 log10 cfu/mL
Decline in enterococcal populations [6]: ~1 log10 cfu/mL
Bifidobacteria lower than steady-state (period A) after cessation of instillation ([6]; period F): ~2 log10 cfu/mL
